Key:
Assay type in all cases: biochemical
MMP-12 = molecular target: T1, MMP-12 (Homo sapiens, UniProt P39900); test: Assay for inhibitory activities on MMPs (fluorogenic peptide substrate), MMP-12; details: catalytic domain 100Phe-263Gly; substrate MOCAc-Pro-Leu-Gly-Leu-A2Pr(DNP)-Ala-Arg-NH2
T1 construct: catalytic domain(^100Phe˜^263Gly) was amplified with RT-PCR; His-tag; enterokinase digestion-site; made in house; host or cells: Escherichia coli
Protocol: (§1) In regard to MMP-12, catalytic domain(^100Phe˜^263Gly) was amplified with RT-PCR from Human Placenta Total RNA. This was cloned in Escherichia. coli expression vector pTrc99AHE inserted with His-tag sequence and enterokinase digestion-site, induced and expressed by IPTG (Isopropyl-β-D-thiogalactopyranoside) and expressed in a insoluble fraction. Isolation of MMP-12 from an insoluble fraction was carried out by dissolving in modifier (6M urea) by a usual method and purification with metal chelate chromatography (Ni Chelateing Sepharose). And then removing modifier (6M urea) with dialysis and refolding of the enzyme spontaneously gave activated MMP-12.
(§2) The enzymatic activity on MMPs was analyzed by the method described in “C. Graham Knight, Frances Willenbrock and Gillian Murphy: A novel coumarin-labelled peptide for sensitive continuous assays of the matrix metalloproteinases: FEBS LETT., 296, (1992), 263-266”. The substrate MOCAc-Pro-Leu-Gly-Leu-A2Pr(DNP)-Ala-Arg-NH2 was purchased from Peptide Institute, Inc., Osaka, Japan. The measurement of the inhibitory activities (IC50) was carried out by the following four methods;
(§3) (A) Reaction with substrate, enzyme (MMPs) and inhibitor
(§4) (B) Reaction with substrate and inhibitor, without enzyme
(§5) (C) Reaction with substrate and enzyme (MMPs), without inhibitor
(§6) (D) Reaction with substrate only
(§7) IC50 values were calculated by using the following formula and each fluorescence values of above four methods (A to D). % inhibition={1−(A−B)/(C−D)}×100 IC50 means the concentration required to inhibit 50% of the enzyme activity.

MMP-8 = molecular target: T2, MMP-8 (Homo sapiens, UniProt P22894); test: Assay for inhibitory activities on MMPs (fluorogenic peptide substrate), MMP-8; details: catalytic domain 99Phe-262Gly; substrate MOCAc-Pro-Leu-Gly-Leu-A2Pr(DNP)-Ala-Arg-NH2
T2 construct: catalytic domain (^99Phe˜^262Gly) was amplified with PCR; His-tag; enterokinase digestion-site; made in house; host or cells: Escherichia coli
T2 sequence (P22894 99-262): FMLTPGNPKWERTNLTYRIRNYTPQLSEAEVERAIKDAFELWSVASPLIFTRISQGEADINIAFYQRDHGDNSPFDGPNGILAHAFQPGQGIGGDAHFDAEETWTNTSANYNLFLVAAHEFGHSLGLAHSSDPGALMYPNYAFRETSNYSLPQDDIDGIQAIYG
From the text: In regard to MMP-8, catalytic domain (^99Phe˜^262Gly) was amplified with PCR using commercial available Human Bone Marrow cDNA. This was cloned in Escherichia. coli expression vector pTrc99AHE inserted with His-tag sequence and enterokinase digestion-site, induced and expressed by IPTG (Isopropyl-β-D-thiogalactopyranoside) and expressed in a insoluble fraction (Thau F. Ho, M. Walid Qoronfleh, Robert C. Wahl, Trica A. Pulvino, Karen J. Vavra, Joe Falvo, Tracey M. Banks, Patricia G. Brake and Richard B. Ciccarelli: Gene expression, purification and characterization of recombinant human neutrophil collagenase. Gene 146, (1994) 297-301, Prepared by the a improved method of this material). Isolation of MMP-8 from an insoluble fraction was carried out by dissolving in modifier (6M urea) by a usual method and purification with metal chelate chromatography. And then removing modifier (6M urea) with dialysis and refolding of the enzyme spontaneously gave activated MMP-8.
as §2, §3, §4, §5, §6, §7

MMP-2 = molecular target: T3, MMP-2 (Homo sapiens, UniProt P08253); test: Assay for inhibitory activities on MMPs (fluorogenic peptide substrate), MMP-2; details: purchased MMP-2; substrate MOCAc-Pro-Leu-Gly-Leu-A2Pr(DNP)-Ala-Arg-NH2
T3 construct: purchased Calbiochem-Novabiochem International, Inc
T3 sequence (P08253 110-660): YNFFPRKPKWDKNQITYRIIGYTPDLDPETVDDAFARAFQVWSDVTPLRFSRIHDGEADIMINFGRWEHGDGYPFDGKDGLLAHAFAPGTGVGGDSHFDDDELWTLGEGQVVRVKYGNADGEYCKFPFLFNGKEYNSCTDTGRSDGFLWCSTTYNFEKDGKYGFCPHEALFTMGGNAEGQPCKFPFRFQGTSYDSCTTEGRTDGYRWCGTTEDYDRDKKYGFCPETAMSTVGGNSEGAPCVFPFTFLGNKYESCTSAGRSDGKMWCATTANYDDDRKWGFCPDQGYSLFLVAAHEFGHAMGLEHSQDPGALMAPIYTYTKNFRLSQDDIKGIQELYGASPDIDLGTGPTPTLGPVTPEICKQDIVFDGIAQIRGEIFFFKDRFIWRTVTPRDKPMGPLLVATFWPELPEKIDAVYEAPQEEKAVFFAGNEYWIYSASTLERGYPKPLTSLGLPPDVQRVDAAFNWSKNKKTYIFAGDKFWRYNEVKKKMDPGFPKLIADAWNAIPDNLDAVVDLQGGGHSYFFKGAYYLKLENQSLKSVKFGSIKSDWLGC
Protocol: MMP-2 was purchased from Calbiochem-Novabiochem International, Inc.
as §2, §3, §4, §5, §6, §7

MMP-9 = molecular target: T4, MMP-9 (Homo sapiens, UniProt P14780); test: Assay for inhibitory activities on MMPs (fluorogenic peptide substrate), MMP-9; details: MMP-9 from HT1080 cells, activated by TPCK-Trypsin; substrate MOCAc-Pro-Leu-Gly-Leu-A2Pr(DNP)-Ala-Arg-NH2
T4 construct: endogenous in cells; host or cells: HT1080 human fibrosarcoma cells, TPA-stimulated; enzyme purified from conditioned medium
T4 sequence (P14780 107-707 limits assumed): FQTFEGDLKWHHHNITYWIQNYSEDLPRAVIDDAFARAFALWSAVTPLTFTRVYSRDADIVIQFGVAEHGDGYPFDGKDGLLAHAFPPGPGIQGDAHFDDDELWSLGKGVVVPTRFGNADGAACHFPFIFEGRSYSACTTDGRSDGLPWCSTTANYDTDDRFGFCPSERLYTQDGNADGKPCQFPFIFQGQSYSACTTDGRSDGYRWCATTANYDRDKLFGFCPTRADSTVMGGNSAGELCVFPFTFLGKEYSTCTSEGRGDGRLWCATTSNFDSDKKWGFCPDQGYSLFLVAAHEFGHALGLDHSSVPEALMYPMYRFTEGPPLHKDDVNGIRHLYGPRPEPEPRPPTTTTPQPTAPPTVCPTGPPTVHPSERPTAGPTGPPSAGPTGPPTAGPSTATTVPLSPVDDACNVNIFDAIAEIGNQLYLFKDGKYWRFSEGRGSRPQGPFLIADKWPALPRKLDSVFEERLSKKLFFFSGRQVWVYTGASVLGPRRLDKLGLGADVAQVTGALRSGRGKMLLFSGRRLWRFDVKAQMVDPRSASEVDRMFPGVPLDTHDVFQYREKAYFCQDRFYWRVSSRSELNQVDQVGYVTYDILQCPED
From the text: MMP-9 was isolated and purified by procedures described in as follows: Yasunori Okada, Yukio Gonoji, Katsumi Naka, Katsuro Tomita, Isao Nakanishi, Kazushi Iwata, Kyoko Yamashita, and Taro Hayakawa: Matrix metalloproteinase 9 (92-kDa gelatinase/type IV collagenase) from HT1080 human fibrosarcoma cells. Purification and activation of the precursor and enzymic properties J. Biol. Chem., 1992, 267 21712-21719, in combination with others: 1)Yasunori Okada, Tatsuhisa Morodomi, Jan J, Enghild, ko Suzuki, Atsushi Yasui, Isao Nakanishi, Guy Salvesen and Hideaki Nagase: Matrix metalloproteinase 2 from human rheumatoid synovial fibroblasts. Purification and activation of the precursor and enzymic properties. Eur. J. Biochem. 1990, 194 721-730; 2)Robin V Ward, Rosalind M Hembry, John J Reynolds and Gillian Murphy: The purification of tissue inhibitor of metalloproteinase-2 from its 72 kDa progelatinase complex. Biochem. J. 1991 278 179-187. In detail, human fibrosarcoma ATCC HT1080 cell line was cultured to confluent in Dulbecco's Modified Medium (DMEM) containing 10% fetal-calf serum at 37° C. for 48 hours. Subsequently, the medium of confluent culture was changed to serum-free DMEM medium. To obtain MMP-9, Phorbol-12-myristate-13-acetate (TPA) must be added to this serum-free DMEM medium at a concentration of 50 ng/ml. The TPA treated medium was centrifuged at 3000 rpm for 15 min and the supernatant was concentrated to 450 ml by a Toyo-Roshi UP-20 apparatus with an ultrafiltration membrane. Then, proMMP-9 in this concentrated solution was purified by using columns of Gelatin-Sepharose and Concanavalin A-Sepharose. The pool containing proMMP-9 was dialyzed, concentrated (Toyo-Roshi UP-20) and applied to columns of Sephacryl S-200 and Green A matrix for the separation from TIMPs. The obtained proMMP-9 fraction was activated by TPCK-Trypsin (Final conc. 3 μg/501 μl React Mix.).
as §2, §3, §4, §5, §6, §7

MMP-13 = molecular target: T5, MMP-13 (Homo sapiens, UniProt P45452); test: Assay for inhibitory activities on MMPs (fluorogenic peptide substrate), MMP-13; details: catalytic domain 104Tyr-267Gly; substrate MOCAc-Pro-Leu-Gly-Leu-A2Pr(DNP)-Ala-Arg-NH2
T5 construct: catalytic domain (^104Tyr˜^267Gly) was amplified with RT-PCR; His-tag; enterokinase digestion-site; made in house; host or cells: Escherichia coli
Protocol: as §1, with “MMP-13, mRNA was prepared from carcinoma cell SW1353 derived from human cartilage stimulate by IL-1, TNF and” for “MMP-12,”, “domain (^104Tyr˜^267Gly)” for “domain(^100Phe˜^263Gly)”, “RT-PCR.” for “RT-PCR from Human Placenta Total RNA.”, “MMP-13” for “MMP-12”, “dialyze” for “dialysis”, “MMP-13.” for “MMP-12.”
as §2, §3, §4, §5, §6, §7

T1 sequence (P39900 100-263): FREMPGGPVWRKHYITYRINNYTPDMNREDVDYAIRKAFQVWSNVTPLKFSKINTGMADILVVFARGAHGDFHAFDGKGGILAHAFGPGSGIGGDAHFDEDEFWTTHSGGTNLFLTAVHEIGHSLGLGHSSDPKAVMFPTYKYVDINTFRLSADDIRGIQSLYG

Compound	IC50 (MMP-12) [nM]	IC50 (MMP-8) [nM]	IC50 (MMP-2) [nM]	IC50 (MMP-9) [nM]	IC50 (MMP-13) [nM]
C[C@H](NS(=O)(=O)c1ccc(-c2ncc(-c3ccc(Cl)cc3)o2)cc1)C(=O)O [Compound A-5]	28.4	–	–	–	–
C[C@@H](NS(=O)(=O)c1ccc(-c2ncc(-c3ccc(F)cc3)o2)cc1)C(=O)O [Compound A-6]	12.5	233	9.71	368	234
COc1ccc(-c2cnc(-c3ccc(S(=O)(=O)N[C@H](C)C(=O)O)cc3)o2)cc1 [Compound A-8]	2.78	25.2	3.37	218	22.6
COc1ccc(-c2cnc(-c3ccc(S(=O)(=O)N[C@@H](C)C(=O)O)cc3)o2)cc1 [Compound A-9]	27.3	266	287	9320	433
C[C@@H](NS(=O)(=O)c1ccc(-c2ncc(-c3ccc(Br)cc3)o2)cc1)C(=O)O [Compound A-10]	2.42	97.4	5.46	135	59.2
COc1ccc(-c2cnc(-c3ccc(S(=O)(=O)N[C@H](Cc4ccccc4)C(=O)O)cc3)o2)cc1 [Compound A-14]	1.88	7.07	2.66	174	5.51
O=C(O)[C@H](Cc1ccccc1)NS(=O)(=O)c1ccc(-c2ncc(-c3ccc(Cl)cc3)o2)cc1 [Compound A-16]	26.2	–	265	758	774
O=C(O)[C@@H](Cc1ccccc1)NS(=O)(=O)c1ccc(-c2ncc(-c3ccc(F)cc3)o2)cc1 [Compound A-19]	7.71	113	14.4	247	113
CC(C)[C@H](NS(=O)(=O)c1ccc(-c2ncc(-c3ccccc3)o2)cc1)C(=O)O [Compound A-22]	2.69	53.3	7.84	144	5.31
CC(C)[C@H](NS(=O)(=O)c1ccc(-c2ncc(-c3ccc(Cl)cc3)o2)cc1)C(=O)O [Compound A-24]	10	337	670	2370	678
CC(C)[C@@H](NS(=O)(=O)c1ccc(-c2ncc(-c3ccc(F)cc3)o2)cc1)C(=O)O [Compound A-25]	7.48	75.9	12.2	179	140
CC(C)[C@H](NS(=O)(=O)c1ccc(-c2ncc(-c3ccc(F)cc3)o2)cc1)C(=O)O [Compound A-26]	40.2	569	514	1810	–
CC(C)[C@@H](NS(=O)(=O)c1ccc(-c2ncc(-c3ccc(Br)cc3)o2)cc1)C(=O)O [Compound A-27]	1.55	57.3	6.08	67.9	54.5
COc1ccc(-c2cnc(-c3ccc(S(=O)(=O)N[C@H](CC(C)C)C(=O)O)cc3)o2)cc1 [Compound A-28]	5.05	26.1	10.9	483	44.8
CC(C)C[C@@H](NS(=O)(=O)c1ccc(-c2ncc(-c3ccc(Cl)cc3)o2)cc1)C(=O)O [Compound A-30]	11.4	320	44.4	502	226
CSCC[C@@H](NS(=O)(=O)c1ccc(-c2ncc(-c3ccc(Cl)cc3)o2)cc1)C(=O)O [Compound A-36]	2.98	127	16.3	226	140
C[C@@H](NS(=O)(=O)c1ccc(-c2ncc(-c3ccc4ccccc4c3)o2)cc1)C(=O)O [Compound A-46]	2.25	279	7.16	157	19
CC(C)[C@@H](NS(=O)(=O)c1ccc(-c2ncc(-c3ccc4ccccc4c3)o2)cc1)C(=O)O [Compound A-50]	0.699	146	4.86	88.6	11.9
CC(C)[C@@H](NS(=O)(=O)c1ccc(-c2ncc(-c3ccccc3)s2)cc1)C(=O)O [Compound B-2]	2.92	15.1	1.83	13.8	14.5
CC(C)[C@H](NS(=O)(=O)c1ccc(-c2ncc(-c3ccccc3)s2)cc1)C(=O)O [Compound B-3]	3.16	18.9	7.45	70.5	15

Reference: patent US6949566B2, “Thiazole and oxazole derivatives” (Shionogi & Co. Ltd., priority 2000, dated 2005)
